Target: human V1a receptor (Homo sapiens (Human), UniProt P37288)
Assay: Cellular in vitro assay for determining vasopressin receptor activity (V1a, aequorin luminescence)
Type: cell-based
Settings: selectivity, IC50 hV2 divided by IC50 hV1a
Experimental: B-1. Cellular In Vitro Assay for Determining Vasopressin Receptor Activity
The identification of agonists and antagonists of the V1a and V2 vasopressin receptors from humans, rats and dogs as well as the quantification of the activity of the compounds of the invention is carried out using recombinant cell lines. These cell lines originally derive from a hamster's ovary epithelial cell (Chinese Hamster Ovary, CHO K1, ATCC: American Type Culture Collection, Manassas, Va. 20108, USA). The test cell lines constitutively express the human, rat or dog V1a or V2 receptors. In case of the Gαq-coupled V1a receptors, cells are also stably transfected with a modified form of the calcium-sensitive photoproteins aequorin (human and rat V1a) or obe-lin (dog V1a), which, after reconstitution with the cofactor coelenterazine, emit light when there are increases in free calcium concentrations [Rizzuto R, Simpson A W, Brini M, Pozzan T, Nature 358, 325-327 (1992); Illarionov B A, Bondar V S, Illarionova V A, Vysotski E S, Gene 153 (2), 273-274 (1995)]. The resulting vasopressin receptor cells react to stimulation of the recombinantly expressed Via receptors by intracellular release of calcium ions, which can be quantified by the resulting photoprotein luminescence. The Gs-coupled V2 receptors are stably transfected into cell lines expressing the gene for firefly luciferase under control of a CRE-responsible promoter. Activation of V2 receptors induces the activation of the CRE-responsive promoter via cAMP increase, thereby inducing the expression of firefly luciferase. The light emitted by photoproteins of V1a cell lines as well as the light emitted by firefly luciferase of V2 cell lines corresponds to the activation or inhibition of the respective vasopressin receptor. The bioluminescence of the cell lines is detected using a suitable luminometer [Milligan G, Marshall F, Rees S, Trends in Pharmacological Sciences 17, 235-237 (1996)].
Vasopressin V1a Receptor Cell Lines:
On the day before the assay, the cells are plated out in culture medium (DMEM/F12, 2% FCS, 2 mM glutamine, 10 mM HEPES, 5 μg/ml coelenterazine) in 384-well microtiter plates and kept in a cell incubator (96% humidity, 5% v/v CO2, 37° C.). On the day of the assay, test compounds in various concentrations are placed for 10 minutes in the wells of the microtiter plate before the agonist [Arg^8]-vasopressin at EC50 concentration is added. The resulting light signal is measured immediately in a luminometer.
Table 1A below lists individual IC50 values for the compounds of the invention (including racemic mixtures as well as separated enantiomers) that were obtained from cell lines transfected with the human Via or V2 receptor: […]

Chain of human V1a receptor (P37288 whole entry): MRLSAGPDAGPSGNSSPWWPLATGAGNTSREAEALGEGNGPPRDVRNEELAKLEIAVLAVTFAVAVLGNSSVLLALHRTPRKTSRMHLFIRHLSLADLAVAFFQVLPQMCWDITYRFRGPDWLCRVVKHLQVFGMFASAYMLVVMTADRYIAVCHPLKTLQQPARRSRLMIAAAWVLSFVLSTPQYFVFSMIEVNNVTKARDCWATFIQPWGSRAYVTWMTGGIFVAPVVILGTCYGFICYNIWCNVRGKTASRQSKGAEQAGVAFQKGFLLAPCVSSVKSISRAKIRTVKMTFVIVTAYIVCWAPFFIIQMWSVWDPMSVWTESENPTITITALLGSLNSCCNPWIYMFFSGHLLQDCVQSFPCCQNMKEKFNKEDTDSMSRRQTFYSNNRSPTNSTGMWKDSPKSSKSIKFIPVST

ratio IC50 hV2/hV1a	SMILES
26.1	O=C(CCC(F)(F)F)NC(Cn1c(-c2ccc(Cl)cc2)nn(Cc2ncn(-c3ncccc3Cl)n2)c1=O)C(F)(F)F (racemic) [Example 33, N-{3-[3-(4-Chlorophenyl)-1-{[1-(3-chloropyridin-2-yl)-1H-1,2,4-triazol-3-yl]methyl}-5-oxo-1,5-dihydro-4H-1,2,4-triazol-4-yl]-1,1,1-trifluoropropan-2-yl}-4,4,4-trifluorobutanamide]
40.9	O=C(CCC(F)(F)F)NC(Cn1c(-c2ccc(Cl)cc2)nn(Cc2ncn(-c3ncccc3Cl)n2)c1=O)C(F)(F)F (racemic) [Example 34, N-{3-[3-(4-Chlorophenyl)-1-{[1-(3-chloropyridin-2-yl)-1H-1,2,4-triazol-3-yl]methyl}-5-oxo-1,5-dihydro-4H-1,2,4-triazol-4-yl]-1,1,1-trifluoropropan-2-yl}-4,4,4-trifluorobutanamide]
110.9	O=C(NC(Cn1c(-c2ccc(Cl)cc2)nn(Cc2ncn(-c3ncccc3Cl)n2)c1=O)C(F)(F)F)C1CS(=O)(=O)C1 (racemic) [Example 39, N-{3-[3-(4-Chlorophenyl)-1-{[1-(3-chloropyridin-2-yl)-1H-1,2,4-triazol-3-yl]methyl}-5-oxo-1,5-dihydro-4H-1,2,4-triazol-4-yl]-1,1,1-trifluoropropan-2-yl}thietane-3-carboxamide 1,1-dioxide]
26.7	O=C(NC(Cn1c(-c2ccc(Cl)cc2)nn(Cc2ncn(-c3ncccc3Cl)n2)c1=O)C(F)(F)F)C1CS(=O)(=O)C1 (racemic) [Example 40, N-{3-[3-(4-Chlorophenyl)-1-{[1-(3-chloropyridin-2-yl)-1H-1,2,4-triazol-3-yl]methyl}-5-oxo-1,5-dihydro-4H-1,2,4-triazol-4-yl]-1,1,1-trifluoropropan-2-yl}thietane-3-carboxamide 1,1-dioxide]
9.8	CS(=O)(=O)CC(=O)NC(Cn1c(-c2ccc(Cl)cc2)nn(Cc2ncn(-c3ncccc3Cl)n2)c1=O)C(F)(F)F (racemic) [Example 45, N-{3-[3-(4-Chlorophenyl)-1-{[1-(3-chloropyridin-2-yl)-1H-1,2,4-triazol-3-yl]methyl}-5-oxo-1,5-dihydro-4H-1,2,4-triazol-4-yl]-1,1,1-trifluoropropan-2-yl}-2-(methylsulfonyl)acetamide]
42.8	CS(=O)(=O)CC(=O)NC(Cn1c(-c2ccc(Cl)cc2)nn(Cc2ncn(-c3ncccc3Cl)n2)c1=O)C(F)(F)F (racemic) [Example 46, N-{3-[3-(4-Chlorophenyl)-1-{[1-(3-chloropyridin-2-yl)-1H-1,2,4-triazol-3-yl]methyl}-5-oxo-1,5-dihydro-4H-1,2,4-triazol-4-yl]-1,1,1-trifluoropropan-2-yl}-2-(methylsulfonyl)acetamide]
56.5	O=C(NC(Cn1c(-c2ccc(Cl)cc2)nn(Cc2ncn(-c3ncccc3Cl)n2)c1=O)C(F)(F)F)[C@@H]1C[C@H](F)CN1 (stereo in doubt) [Example 48, N-{3-[3-(4-Chlorophenyl)-1-{[1-(3-chloropyridin-2-yl)-1H-1,2,4-triazol-3-yl]methyl}-5-oxo-1,5-dihydro-4H-1,2,4-triazol-4-yl]-1,1,1-trifluoropropan-2-yl}-4-fluoro-prolinamide]
112.7	O=C(NC(Cn1c(-c2ccc(Cl)cc2)nn(Cc2ncn(-c3ncccc3Cl)n2)c1=O)C(F)(F)F)[C@@H]1C[C@@H](F)CN1 (stereo in doubt) [Example 49, N-{3-[3-(4-Chlorophenyl)-1-{[1-(3-chloropyridin-2-yl)-1H-1,2,4-triazol-3-yl]methyl}-5-oxo-1,5-dihydro-4H-1,2,4-triazol-4-yl]-1,1,1-trifluoropropan-2-yl}-4-fluoro-prolinamide]
